Reference: PubChem BioAssay AID2060499 (Molecular Pharmacology Branch, DTP, NCI, 2025)
pIC50: −log10 of the molar value.

Test system: 777334-354-R2-J4-PDC tumor spheroids with HUVEC/MSC, viability
Assay: Anticancer human tumor 777334-354-R2-J4-PDC patient-derived pancreatic adenocarcinoma cell line growth inhibition [GQUAD]
Settings: for pIC50: curve of first compound; for viability, T/C: stronger effect = lower value
Outline: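 Tumor cells were grown as complex spheroids with HUVEC endothelial cells and mesenchymal stem cells as stroma. G-quadruplex stabilizers were combined with targeted agents over half-log dilutions from near the clinical Cmax, or from 10 microM.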

[1] = second compound 0.0316 µM, first compound 0.0316 µM
[2] = second compound 0.0316 µM, first compound 0.1 µM
[3] = second compound 0.0316 µM, first compound 0.316 µM
[4] = second compound 0.0316 µM, first compound 1 µM
[5] = second compound 0.0316 µM, first compound 3.16 µM
[6] = second compound 0.0316 µM, first compound 10 µM
[7] = second compound 0.1 µM, first compound 0.0316 µM
[8] = second compound 0.1 µM, first compound 0.1 µM
[9] = second compound 0.1 µM, first compound 0.316 µM
[10] = second compound 0.1 µM, first compound 1 µM
[11] = second compound 0.1 µM, first compound 3.16 µM
[12] = second compound 0.1 µM, first compound 10 µM
[13] = second compound 0.316 µM, first compound 0.0316 µM
[14] = second compound 0.316 µM, first compound 0.1 µM
[15] = second compound 0.316 µM, first compound 0.316 µM
[16] = second compound 0.316 µM, first compound 1 µM
[17] = second compound 0.316 µM, first compound 3.16 µM
[18] = second compound 0.316 µM, first compound 10 µM
[19] = second compound 1 µM, first compound 0.0316 µM
[20] = second compound 1 µM, first compound 0.1 µM
[21] = second compound 1 µM, first compound 0.316 µM
[22] = second compound 1 µM, first compound 1 µM
[23] = second compound 1 µM, first compound 3.16 µM
[24] = second compound 1 µM, first compound 10 µM
[25] = second compound 3.16 µM, first compound 0.0316 µM
[26] = second compound 3.16 µM, first compound 0.1 µM
[27] = second compound 3.16 µM, first compound 0.316 µM
[28] = second compound 3.16 µM, first compound 1 µM
[29] = second compound 3.16 µM, first compound 3.16 µM
[30] = second compound 3.16 µM, first compound 10 µM
[31] = second compound 10 µM, first compound 0.0316 µM
[32] = second compound 10 µM, first compound 0.1 µM
[33] = second compound 10 µM, first compound 0.316 µM
[34] = second compound 10 µM, first compound 1 µM
[35] = second compound 10 µM, first compound 3.16 µM
[36] = second compound 10 µM, first compound 10 µM
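Note: spheroids exposed to compounds for 7 days before readout.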

CC(C)n1c(=O)n(C)c2cnc3cc(F)c(-c4ccc(OCCCN5CCCCC5)nc4)cc3c21 + Cc1cnc(CNC(=O)c2c(=O)c3ccc(N4CCCN(C)CC4)nc3n3c2sc2ccccc23)cn1
pIC50 (second compound 0.0316 µM): < 5.00 | pIC50 (second compound 0.1 µM): < 5.00 | pIC50 (second compound 0.316 µM): < 5.00 | pIC50 (second compound 1 µM): < 5.00 | pIC50 (second compound 3.16 µM): < 5.00 | pIC50 (second compound 10 µM): < 5.00 | viability, T/C [1]: 85.8% | viability, T/C [2]: 84% | viability, T/C [3]: 93.9% | viability, T/C [4]: 91% | viability, T/C [5]: 103% | viability, T/C [6]: 85.6% | viability, T/C [7]: 78.3% | viability, T/C [8]: 74.3% | viability, T/C [9]: 89.1% | viability, T/C [10]: 73.6% | viability, T/C [11]: 74.2% | viability, T/C [12]: 91.4% | viability, T/C [13]: 71.4% | viability, T/C [14]: 73.2% | viability, T/C [15]: 73.8% | viability, T/C [16]: 84.7% | viability, T/C [17]: 76% | viability, T/C [18]: 74.8% | viability, T/C [19]: 73.3% | viability, T/C [20]: 71.6% | viability, T/C [21]: 66.9% | viability, T/C [22]: 72.7% | viability, T/C [23]: 85.7% | viability, T/C [24]: 73.7% | viability, T/C [25]: 57.6% | viability, T/C [26]: 62.8% | viability, T/C [27]: 66.5% | viability, T/C [28]: 62.1% | viability, T/C [29]: 78.6% | viability, T/C [30]: 63.4% | viability, T/C [31]: 57.4% | viability, T/C [32]: 52.9% | viability, T/C [33]: 61.6% | viability, T/C [34]: 62% | viability, T/C [35]: 69% | viability, T/C [36]: 64.1%

CC1COCCN1c1cc(-c2ccnn2C)c2ccnc(-c3ccn[nH]3)c2n1 (stereo not given) + Cc1cnc(CNC(=O)c2c(=O)c3ccc(N4CCCN(C)CC4)nc3n3c2sc2ccccc23)cn1
pIC50 (second compound 0.0316 µM): 6.84 | pIC50 (second compound 0.1 µM): 6.62 | pIC50 (second compound 0.316 µM): 6.48 | pIC50 (second compound 1 µM): > 7.50 | pIC50 (second compound 3.16 µM): > 7.50 | pIC50 (second compound 10 µM): > 7.50 | viability, T/C [1]: 73.2% | viability, T/C [2]: 50.8% | viability, T/C [3]: 45.5% | viability, T/C [4]: 41.7% | viability, T/C [5]: 43.1% | viability, T/C [6]: 34.5% | viability, T/C [7]: 59.8% | viability, T/C [8]: 51.3% | viability, T/C [9]: 47.8% | viability, T/C [10]: 41.9% | viability, T/C [11]: 44.1% | viability, T/C [12]: 28.7% | viability, T/C [13]: 56% | viability, T/C [14]: 59.3% | viability, T/C [15]: 48.6% | viability, T/C [16]: 41.8% | viability, T/C [17]: 38.6% | viability, T/C [18]: 26.9% | viability, T/C [19]: 48.3% | viability, T/C [20]: 44.1% | viability, T/C [21]: 52.8% | viability, T/C [22]: 41.8% | viability, T/C [23]: 36.2% | viability, T/C [24]: 27.5% | viability, T/C [25]: 44.5% | viability, T/C [26]: 41% | viability, T/C [27]: 41.7% | viability, T/C [28]: 41.3% | viability, T/C [29]: 29.6% | viability, T/C [30]: 20% | viability, T/C [31]: 42.8% | viability, T/C [32]: 39.8% | viability, T/C [33]: 44.7% | viability, T/C [34]: 36.9% | viability, T/C [35]: 32.5% | viability, T/C [36]: 21.2%

CC1COCCN1c1cc(C2(O)CC3CCC(C2)O3)c2cnn(-c3ccn[nH]3)c2n1 (stereo not given) + Cc1cnc(CNC(=O)c2c(=O)c3ccc(N4CCCN(C)CC4)nc3n3c2sc2ccccc23)cn1
pIC50 (second compound 0.0316 µM): 6.89 | pIC50 (second compound 0.1 µM): 6.84 | pIC50 (second compound 0.316 µM): 6.80 | pIC50 (second compound 1 µM): 6.89 | pIC50 (second compound 3.16 µM): > 7.50 | pIC50 (second compound 10 µM): > 7.50 | viability, T/C [1]: 62% | viability, T/C [2]: 46.6% | viability, T/C [3]: 45.6% | viability, T/C [4]: 37.3% | viability, T/C [5]: 32.6% | viability, T/C [6]: 21.5% | viability, T/C [7]: 65.9% | viability, T/C [8]: 46.5% | viability, T/C [9]: 46.4% | viability, T/C [10]: 34.8% | viability, T/C [11]: 31.9% | viability, T/C [12]: 18.4% | viability, T/C [13]: 54.1% | viability, T/C [14]: 55% | viability, T/C [15]: 46% | viability, T/C [16]: 37.1% | viability, T/C [17]: 30.6% | viability, T/C [18]: 16.5% | viability, T/C [19]: 59.7% | viability, T/C [20]: 46.1% | viability, T/C [21]: 45.6% | viability, T/C [22]: 39.7% | viability, T/C [23]: 26.4% | viability, T/C [24]: 15% | viability, T/C [25]: 40.8% | viability, T/C [26]: 46.1% | viability, T/C [27]: 46.3% | viability, T/C [28]: 34.2% | viability, T/C [29]: 21.4% | viability, T/C [30]: 14.9% | viability, T/C [31]: 46.8% | viability, T/C [32]: 42.8% | viability, T/C [33]: 39% | viability, T/C [34]: 29.6% | viability, T/C [35]: 18.7% | viability, T/C [36]: 11.2%

CC1COCCN1c1cc(C2(S(C)(=N)=O)CC2)nc(-c2ccnc3[nH]ccc23)n1 (stereo not given) + Cc1cnc(CNC(=O)c2c(=O)c3ccc(N4CCCN(C)CC4)nc3n3c2sc2ccccc23)cn1
pIC50 (second compound 0.0316 µM): < 5.00 | pIC50 (second compound 0.1 µM): < 5.00 | pIC50 (second compound 0.316 µM): < 5.00 | pIC50 (second compound 1 µM): < 5.00 | pIC50 (second compound 3.16 µM): < 5.00 | pIC50 (second compound 10 µM): < 5.00 | viability, T/C [1]: 103% | viability, T/C [2]: 85.7% | viability, T/C [3]: 113% | viability, T/C [4]: 93.9% | viability, T/C [5]: 99% | viability, T/C [6]: 53.8% | viability, T/C [7]: 112% | viability, T/C [8]: 84.4% | viability, T/C [9]: 94.8% | viability, T/C [10]: 80.5% | viability, T/C [11]: 88.9% | viability, T/C [12]: 53% | viability, T/C [13]: 84.1% | viability, T/C [14]: 87.4% | viability, T/C [15]: 81.2% | viability, T/C [16]: 82% | viability, T/C [17]: 86.9% | viability, T/C [18]: 52.3% | viability, T/C [19]: 76.2% | viability, T/C [20]: 93.4% | viability, T/C [21]: 78.5% | viability, T/C [22]: 81.5% | viability, T/C [23]: 68.6% | viability, T/C [24]: 50.7% | viability, T/C [25]: 64.5% | viability, T/C [26]: 57.1% | viability, T/C [27]: 65% | viability, T/C [28]: 58.7% | viability, T/C [29]: 69.2% | viability, T/C [30]: 54.7% | viability, T/C [31]: 56.5% | viability, T/C [32]: 59.5% | viability, T/C [33]: 53.5% | viability, T/C [34]: 55.9% | viability, T/C [35]: 57.5% | viability, T/C [36]: 44.7%

COc1ccc([C@@H](O)c2cc(-c3ncnc4cc(N5CCOCC5)ccc34)c(F)cc2Cl)nn1 + Cc1cnc(CNC(=O)c2c(=O)c3ccc(N4CCCN(C)CC4)nc3n3c2sc2ccccc23)cn1
pIC50 (second compound 0.0316 µM): 5.52 | pIC50 (second compound 0.1 µM): 5.79 | pIC50 (second compound 0.316 µM): 5.68 | pIC50 (second compound 1 µM): 5.83 | pIC50 (second compound 3.16 µM): 6.02 | pIC50 (second compound 10 µM): 6.18 | viability, T/C [1]: 101% | viability, T/C [2]: 94.4% | viability, T/C [3]: 101% | viability, T/C [4]: 72.1% | viability, T/C [5]: 51% | viability, T/C [6]: 24.6% | viability, T/C [7]: 102% | viability, T/C [8]: 84.4% | viability, T/C [9]: 69.9% | viability, T/C [10]: 57.9% | viability, T/C [11]: 42.8% | viability, T/C [12]: 23.2% | viability, T/C [13]: 93.9% | viability, T/C [14]: 89.3% | viability, T/C [15]: 75.8% | viability, T/C [16]: 64.8% | viability, T/C [17]: 42% | viability, T/C [18]: 20.1% | viability, T/C [19]: 76.2% | viability, T/C [20]: 84.1% | viability, T/C [21]: 69.5% | viability, T/C [22]: 57.7% | viability, T/C [23]: 36.3% | viability, T/C [24]: 19.2% | viability, T/C [25]: 61.1% | viability, T/C [26]: 64.9% | viability, T/C [27]: 63.1% | viability, T/C [28]: 45.6% | viability, T/C [29]: 34.9% | viability, T/C [30]: 17.1% | viability, T/C [31]: 58.4% | viability, T/C [32]: 61% | viability, T/C [33]: 52.5% | viability, T/C [34]: 48.5% | viability, T/C [35]: 28.6% | viability, T/C [36]: 15.6%
